Measured values published in patent publication US11414424B2, “Cardiac sarcomere inhibitors” (Cytokinetics, Inc., priority 2018, dated 2022).

The compounds below were run on bovine cardiac myofibrils (assay: Myofibril assay: PK/LDH-coupled steady-state ATPase activity of skinned bovine cardiac myofibrils). Conditions: Ca2+ activating to 75% of maximal rate.
Type: biochemical
Summary of the method: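 Steady-state ATPase of detergent-skinned bovine left-ventricular myofibrils (1 mg/mL), PK/LDH-coupled NADH read at 340 nm, in PIPES/MgCl2 buffer pH 6.8 with 50 μM ATP, 0.6 mM EGTA and CaCl2 set for 50% or 75% activation. Inhibition of activity measured.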

Row | Compound | CDMF75 IC15
1 | CC(C)N1CC(=O)N(Cc2ccc(C(F)(F)F)cc2)C2(CCN(c3cc[nH]c(=O)c3)C2)C1=O (stereo not shown) [Compound 76, 9-isopropyl-2-(2-oxo-1,2-dihydropyridin-4-yl)-6-(4-(trifluoromethyl)benzyl)-2,6,9-triazaspiro[4.5]decane-7,10-dione] | 2.2 µM
2 | Cc1cc(N2CCC3(C2)C(=O)N(C(C)C)CC(=O)N3Cc2ccc(C(F)(F)F)cc2)cc(C)n1 (stereo not shown) [Compound 77, 2-(2,6-dimethylpyridin-4-yl)-9-isopropyl-6-(4-(trifluoromethyl)benzyl)-2,6,9-triazaspiro[4.5]-decane-7,10-dione] | 13.0 µM
3 | CCN1CC(=O)N(Cc2ccc(Cl)cc2)C2(CCN(c3ccccn3)C2)C1=O (stereo not shown) [Compound 82, 6-(4-chlorobenzyl)-9-ethyl-2-(pyridin-2-yl)-2,6,9-triazaspiro[4.5]decane-7,10-dione] | 8.1 µM
4 | O=C1CN(C2CCCC2)C(=O)C2(CCN(c3ccccn3)C2)N1Cc1ccc(Cl)cc1 (stereo not shown) [Compound 83, 6-(4-chlorobenzyl)-9-cyclopentyl-2-(pyridin-2-yl)-2,6,9-triazaspiro[4.5]-decane-7,10-dione] | 1.3 µM
5 | CC(C)CN1CC(=O)N(Cc2ccc(Cl)cc2)C2(CCN(c3ccccn3)C2)C1=O (stereo not shown) [Compound 84, 6-(4-chlorobenzyl)-9-isobutyl-2-(pyridin-2-yl)-2,6,9-triazaspiro[4.5]-decane-7,10-dione] | 4.0 µM
6 | CC1(N2CC(=O)N(Cc3ccc(Cl)cc3)C3(CCN(c4ccccn4)C3)C2=O)CC1 (stereo not shown) [Compound 85, 6-(4-chlorobenzyl)-9-(1-methylcyclopropyl)-2-(pyridin-2-yl)-2,6,9-triazaspiro[4.5]decane-7,10-dione] | 14.3 µM
7 | COCC(C)N1CC(=O)N(Cc2ccc(Cl)cc2)C2(CCN(c3ccccn3)C2)C1=O (stereo not shown) [Compound 86, 6-(4-chlorobenzyl)-9-(1-methoxypropan-2-yl)-2-(pyridin-2-yl)-2,6,9-triazaspiro[4.5]decane-7,10-dione] | 8.6 µM
8 | CC(C)N1CC(=O)N(Cc2ccc(C(F)(F)F)cc2)C2(CCN(c3cc(C#N)ccn3)C2)C1=O (stereo not shown) [Compound 88, 2-(9-isopropyl-7,10-dioxo-6-(4-(trifluoromethyl)-benzyl)-2,6,9-triazaspiro[4.5]decan-2-yl)isonicotinonitrile] | 4.0 µM
9 | CC(C)N1CC(=O)N(Cc2ccc(C(F)(F)F)cc2)C2(CCN(c3cc(C(N)=O)ccn3)C2)C1=O (stereo not shown) [Compound 89, 2-(9-isopropyl-7,10-dioxo-6-(4-(trifluoromethyl)-benzyl)-2,6,9-triazaspiro[4.5]decan-2-yl)isonicotinamide] | 3.3 µM
10 | CC(C)N1CC(=O)N(Cc2ccc(Cl)c(Cl)c2)C2(CCN(c3ccc(C#N)cn3)C2)C1=O (stereo not shown) [Compound 90, 6-(6-(3,4-dichlorobenzyl)-9-isopropyl-7,10-dioxo-2,6,9-triazaspiro[4.5]-decan-2-yl)nicotinonitrile] | 1.7 µM
11 | CC(C)N1CC(=O)N(Cc2ccc(Cl)c(Cl)c2)C2(CCN(c3ccc(C(N)=O)cn3)C2)C1=O (stereo not shown) [Compound 91, 6-(6-(3,4-dichlorobenzyl)-9-isopropyl-7,10-dioxo-2,6,9-triazaspiro[4.5]decan-2-yl)nicotinamide] | 1.1 µM
12 | O=C1CN([C@@H]2CCOC2)C(=O)C2(CCN(c3ccccn3)C2)N1Cc1ccc(Cl)cc1 (stereo partly drawn) [Compound 93, 6-(4-chlorobenzyl)-2-(pyridin-2-yl)-9-((R)-tetrahydrofuran-3-yl)-2,6,9-triazaspiro-[4.5]decane-7,10-dione] | 19.7 µM
13 | O=C1CN([C@H]2CCOC2)C(=O)C2(CCN(c3ccccn3)C2)N1Cc1ccc(Cl)cc1 (stereo partly drawn) [Compound 94, 6-(4-chlorobenzyl)-2-(pyridin-2-yl)-9-((S)-tetra-hydrofuran-3-yl)-2,6,9-triazaspiro[4.5]decane-7,10-dione] | 36.1 µM
14 | CC(C)N1CC(=O)N(Cc2ccc(Cl)cc2)C2(CCN(c3cc(C(N)=O)ccn3)C2)C1=O (stereo not shown) [Compound 97, 2-(6-(4-chlorobenzyl)-9-isopropyl-7,10-dioxo-2,6,9-triazaspiro[4.5]decan-2-yl)isonicotinamide] | 3.1 µM
15 | CC(C)N1CC(=O)N(Cc2ccc(C(F)(F)F)cc2)C2(CCN(C(N)=O)C2)C1=O (stereo not shown) [Compound 107, 9-isopropyl-7,10-dioxo-6-(4-(trifluoromethyl)benzyl)-2,6,9-triazaspiro[4.5]decane-2-carboxamide] | 12.7 µM
16 | CC(C)N1CC(=O)N(Cc2ccc(C(F)(F)F)cc2)C2(CCN(C(=O)Nc3ccccc3)C2)C1=O (stereo not shown) [Compound 109, 9-isopropyl-7,10-dioxo-N-phenyl-6-(4-(trifluoro-methyl)benzyl)-2,6,9-triazaspiro[4.5]decane-2-carboxamide] | 8.3 µM

Continued, values first:

Row | CDMF75 IC15 | Compound
17 | 4.1 µM | CC(C)N1CC(=O)N(Cc2ccc(Cl)cc2)C2(CCN(c3cnn(C)c3)C2)C1=O (stereo not shown) [Compound 78, 6-(4-chlorobenzyl)-9-isopropyl-2-(1-methyl-1H-pyrazol-4-yl)-2,6,9-triazaspiro[4.5]decane-7,10-dione]
18 | 3.8 µM | CC(C)N1CC(=O)N(Cc2ccc(Cl)cc2)C2(CCN(c3cccnn3)C2)C1=O (stereo not shown) [Compound 79, 6-(4-chlorobenzyl)-9-isopropyl-2-(pyridazin-3-yl)-2,6,9-triazaspiro[4.5]-decane-7,10-dione]
19 | 1.7 µM | CC(C)N1CC(=O)N(Cc2ccc(Cl)cc2)C2(CCN(c3ccn(C)c(=O)c3)C2)C1=O (stereo not shown) [Compound 80, 6-(4-chlorobenzyl)-9-isopropyl-2-(1-methyl-2-oxo-1,2-dihydropyridin-4-yl)-2,6,9-triazaspiro-[4.5]decane-7,10-dione]
20 | 1.4 µM | CC(C)N1CC(=O)N(Cc2ccc(Cl)cc2)C2(CCN(c3cc[nH]c(=O)c3)C2)C1=O (stereo not shown) [Compound 81, 6-(4-chlorobenzyl)-9-isopropyl-2-(2-oxo-1,2-dihydropyridin-4-yl)-2,6,9-triazaspiro[4.5]decane-7,10-dione]
21 | 1.9 µM | COc1cc(N2CCC3(C2)C(=O)N(C(C)C)CC(=O)N3Cc2ccc(Cl)cc2)ccn1 (stereo not shown) [Compound 87, 6-(4-chlorobenzyl)-9-isopropyl-2-(2-methoxypyridin-4-yl)-2,6,9-triazaspiro[4.5]-decane-7,10-dione]
22 | 1.0 µM | CC(C)N1CC(=O)N(Cc2ccc(Cl)cc2)C2(CCN(c3ccc(F)cn3)C2)C1=O (stereo not shown) [Compound 92, 6-(4-chlorobenzyl)-2-(5-fluoropyridin-2-yl)-9-isopropyl-2,6,9-triazaspiro[4.5]decane-7,10-dione]
23 | 5.0 µM | CC(C)N1CC(=O)N(Cc2ccc(Cl)cc2)C2(CCN(c3cc(C#N)ccn3)C2)C1=O (stereo not shown) [Compound 95, 2-(6-(4-chlorobenzyl)-9-isopropyl-7,10-dioxo-2,6,9-triazaspiro[4.5]decan-2-yl)isonicotinonitrile]
24 | 4.5 µM | CC(C)N1CC(=O)N(Cc2ccc(Cl)cc2)C2(CCN(c3ccc(C#N)cn3)C2)C1=O (stereo not shown) [Compound 96, 6-(6-(4-chlorobenzyl)-9-isopropyl-7,10-dioxo-2,6,9-triazaspiro[4.5]decan-2-yl)nicotinonitrile]
25 | 2.4 µM | CC(C)N1CC(=O)N(Cc2ccc(Cl)cc2)C2(CCN(c3ccc(C(N)=O)cn3)C2)C1=O (stereo not shown) [Compound 98, 6-(6-(4-chlorobenzyl)-9-isopropyl-7,10-dioxo-2,6,9-triazaspiro[4.5]decan-2-yl)nicotinamide]
